By Kd is commonly meant the concentration at which binding is half-saturated. A lower Kd goes with higher affinity.

The record followed here is doi:10.1101/2025.07.01.662521v3, “Ligand-induced Conformational Plasticity of the CTLH E3 Ligase Receptor GID4” (biorxiv, 2026).

The target of assay [1] is T1, GID4 (Homo sapiens, UniProt Q8IVV7).
T1 construct: residues 116-300, N-terminal 6xHis-SUMO tag (DSF construct)
T1 sequence (Q8IVV7 1-300): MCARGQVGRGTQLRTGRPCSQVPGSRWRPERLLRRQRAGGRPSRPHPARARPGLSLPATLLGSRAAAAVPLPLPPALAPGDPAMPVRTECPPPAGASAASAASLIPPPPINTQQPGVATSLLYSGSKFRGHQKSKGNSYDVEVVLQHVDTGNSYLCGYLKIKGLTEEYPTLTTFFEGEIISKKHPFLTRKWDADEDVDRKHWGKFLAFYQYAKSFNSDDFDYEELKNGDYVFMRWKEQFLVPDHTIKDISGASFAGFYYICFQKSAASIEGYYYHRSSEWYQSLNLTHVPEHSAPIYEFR
More on the design: Differential scanning fluorimetry, thermal shift of GID4. Particulars: binder. Here is the method: Following the identification of the binding pocket and the key interactions of the initial fragment, we initiated the synthesis of a series of analogs to explore the structure-activity relationship (SAR) (Table 1). The resulting changes in affinity were evaluated using surface plasmon resonance (SPR) and differential scanning fluorimetry (DSF). […] In the next step, we replaced the 3-Cl group to find an additional potency boost. […] MATERIALS AND METHODS Recombinant Protein Expression and Purification GID4 Expression and Purification Human Glucose-induced degradation protein 4 homolog (Gid4, UniProt ID: Q8IVV7) residues 124-289 were cloned into a vector to generate a N-terminal 6xHis-SUMO-tag for crystallography studies, residues 116-300 were cloned into a vector to generate a N-terminal 6xHis-SUMO-tag for DSF studies and residues 116-300 were cloned into a vector to generate a N-terminal Strep-SUMO-3C-6xHis-AVI-tag for SPR experiments. All constructs were verified by sequencing. Protein was expressed by transforming plasmid into chemically competent recombinant E. coli BL21(DE3) strain. E coli was cultured in LB medium supplemented with 50 µg/mL kanamycin in shaker flasks at 37 °C and 160 rpm. Once an optical density at 600 nm (OD600) reached 0.5-0.6, protein expression was induced by an addition of 0.1 mM IPTG.

The target of assay [2] is T2, GID4 (Homo sapiens, UniProt Q8IVV7).
T2 construct: residues 116-300; N-terminal Strep-SUMO-3C-6xHis-Avi, HRV-3C cleaved, Avi-tag kept and biotinylated; E. coli BL21(DE3)
T2 sequence (Q8IVV7 116-300): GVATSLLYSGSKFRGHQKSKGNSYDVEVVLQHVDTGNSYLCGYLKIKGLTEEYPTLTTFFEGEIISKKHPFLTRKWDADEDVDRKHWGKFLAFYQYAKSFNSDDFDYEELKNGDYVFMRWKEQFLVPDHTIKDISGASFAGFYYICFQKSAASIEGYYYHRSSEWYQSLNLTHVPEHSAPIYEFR
The assay is described as follows: SPR, steady-state affinity. The format is binding. The text has this:
SPR, steady-state affinity on GID4

SMILES strings stand for the structures.

For `NC(=Nc1ccccc1)N1CCCCC1` [compound 1], the “ΔTm by DSF (°C)” value at GID4 [1] is 1.0 ± 0.06 °C. For the same molecule, on GID4 [2], the Kd came to 78.8 µM.
